{
  "source": "patent US12398093B2",
  "about": "“Compounds and methods for treating inflammatory disorders” (Board of Supervisors of Louisiana State University and …, priority 2019, dated 2025)",
  "key": {"[1]": {"tested_on": "C57BL/6J mice", "assay": "Head twitch response (HTR), magnetometer detection", "assay_type": "in vivo", "details": "for HTR counts, mean: 30-minute session; for ED50: Mus musculus", "experimental": "The head twitch response (HTR) can be used as a behavioral proxy in rodents for human hallucinogenic effects, because it can reliably distinguish hallucinogenic and non-hallucinogenic 5-HT2A receptor agonists. […] HTR studies were conducted with (R)-DOI and 2C-iBu in C57BL/6J mice.\nMale C57BL/6J mice (6-8 weeks old) obtained from Jackson Laboratories (Bar Harbor, ME, USA) were housed at up to four per cage in a climate-controlled room on a reverse-light cycle (lights on at 1900 h, off at 0700 h) and were provided with ad libitum access to food and water, except during behavioral testing. Testing was conducted between 1000 and 1800 h.\nDrug doses are based on the equivalent freebase weight. Test substances were dissolved in sterile isotonic saline and injected subcutaneously (SC) at a volume of 5 mL/kg.\nThe HTR was assessed using a head-mounted magnet and a magnetometer detection coil, according to known methods. Briefly, mice were anesthetized, a small incision was made in the scalp, and a small neodymium magnet was attached to the dorsal surface of the cranium using dental cement. Following a two-week recovery period, HTR experiments were carried out in a well-lit room with at least seven days between sessions to avoid carryover effects. Test compounds were injected immediately prior to testing. Mice were injected with drug or vehicle and then HTR activity was recorded in a glass cylinder surrounded by a magnetometer coil. Coil voltage was low-pass filtered (2-10 kHz cutoff frequency), amplified, and digitized (20 kHz sampling rate) using a Powerlab/8SP with LabChart v 7.3.2 (ADInstruments, Colorado Springs, CO, USA), then filtered off-line (40-200 Hz band-pass).\nExperiment 1. Five groups of mice (n=6/group, 30 total) were treated with vehicle or R-DOI (0.1, 0.3, 1, or 3 mg/kg) and HTR activity was assessed for 30 minutes. Experiment 2. Five groups of mice (n=6-7/group, 34 total) were treated with vehicle or 2C-iBu (0.3, 1, 3, or 10 mg/kg) and HTR activity was assessed for 30 minutes. Experiment 3. Two groups of mice (n=7/group, 14 total) were treated with R-DOI (1 mg/kg) or 2C-iBu (3 mg/kg) and HTR activity was assessed for 210 minutes.\nFor Experiment 1 and Experiment 2, the entire thirty-minute recordings were examined for head twitches, head twitch counts were analyzed using one-way analyses of variance (ANOVA). In addition, HTR counts were analyzed in two-minute time blocks using one-way ANOVAs, with time as a repeated measure. Post hoc pairwise comparisons between selected groups were performed using Tukey's studentized range method.\nA Gaussian distribution was used to fit biphasic HTR dose-response data:\n[formula] [formula] In these equations, E is the drug effect, Baseline is the response in the control group, Range is the distance from Baseline to the top of the curve, [A] is the dose of the drug, and midA is the logarithm of the dose corresponding to the top of the curve. To determine whether potency differences exist between individual compounds, ED50 values were compared using an extra-sum-of-squares F-test.\nFor Experiment 3, HTR counts were examined in 5-min time blocks. To determine the half-life of drug responses, the descending phase of the data was fitted with a one-phase exponential decay function. The responses produced by R-(−)-DOI (1 mg/kg) or ELEU02 were analyzed using one-way ANOVA, with time as a repeated measure. Post hoc pairwise comparisons between groups were performed using Sidak's multiple comparisons test."}, "[2]": {"biological_target": "T1, 5-HT2AR-Tango construct (Homo sapiens, UniProt P28223)", "T1 construct": "expressed in transfected cells; host or cells: HTLA cells (transient transfection)", "T1 sequence (P28223 whole entry, added parts left off)": "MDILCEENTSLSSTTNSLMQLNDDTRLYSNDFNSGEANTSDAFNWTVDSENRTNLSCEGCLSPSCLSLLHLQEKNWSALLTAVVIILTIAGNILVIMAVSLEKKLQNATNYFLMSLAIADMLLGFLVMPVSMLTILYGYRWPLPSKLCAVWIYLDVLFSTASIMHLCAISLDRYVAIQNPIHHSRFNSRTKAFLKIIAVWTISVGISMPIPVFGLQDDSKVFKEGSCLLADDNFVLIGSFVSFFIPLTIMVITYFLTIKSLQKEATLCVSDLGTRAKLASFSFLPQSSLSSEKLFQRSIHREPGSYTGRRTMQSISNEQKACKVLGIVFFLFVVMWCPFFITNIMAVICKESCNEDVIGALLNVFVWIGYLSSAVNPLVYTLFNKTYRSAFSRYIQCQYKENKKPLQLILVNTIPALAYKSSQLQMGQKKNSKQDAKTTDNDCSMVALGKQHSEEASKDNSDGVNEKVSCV", "T1 sequence (P32121 whole entry partner)": "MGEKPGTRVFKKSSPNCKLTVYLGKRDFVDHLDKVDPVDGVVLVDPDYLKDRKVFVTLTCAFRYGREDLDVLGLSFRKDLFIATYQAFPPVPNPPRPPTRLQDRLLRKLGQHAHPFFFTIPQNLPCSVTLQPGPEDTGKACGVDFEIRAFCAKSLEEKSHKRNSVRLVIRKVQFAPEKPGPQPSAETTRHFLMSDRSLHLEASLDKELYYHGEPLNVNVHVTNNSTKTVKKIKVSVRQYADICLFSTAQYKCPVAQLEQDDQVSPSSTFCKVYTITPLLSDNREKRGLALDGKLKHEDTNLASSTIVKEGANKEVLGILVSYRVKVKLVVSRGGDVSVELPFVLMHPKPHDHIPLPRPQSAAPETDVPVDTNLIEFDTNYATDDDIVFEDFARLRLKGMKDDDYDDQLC", "assay": "β-arrestin-2 recruitment, PRESTO-Tango assay in HTLA cells", "assay_type": "cell-based", "details": "for Emax: HTLA"}, "[3]": {"assay": "In vitro metabolism, intrinsic clearance in human liver microsomes", "assay_type": "in vitro ADME"}, "[4]": {"assay": "In vitro protein binding in human plasma", "assay_type": "in vitro ADME", "details": "1.0×10^−5 M; for recovery: human, plasma, protein binding assay"}, "[5]": {"assay": "In vitro absorption, Caco-2 permeability", "assay_type": "in vitro ADME", "details": "human, Caco-2, pH 6.5, Caco-2, pH 6.5/7.4, 1.0×10^−5 M"}, "[6]": {"biological_target": "5-HT2B (h) (Homo sapiens, UniProt P41595)", "sequence (P41595 whole entry)": "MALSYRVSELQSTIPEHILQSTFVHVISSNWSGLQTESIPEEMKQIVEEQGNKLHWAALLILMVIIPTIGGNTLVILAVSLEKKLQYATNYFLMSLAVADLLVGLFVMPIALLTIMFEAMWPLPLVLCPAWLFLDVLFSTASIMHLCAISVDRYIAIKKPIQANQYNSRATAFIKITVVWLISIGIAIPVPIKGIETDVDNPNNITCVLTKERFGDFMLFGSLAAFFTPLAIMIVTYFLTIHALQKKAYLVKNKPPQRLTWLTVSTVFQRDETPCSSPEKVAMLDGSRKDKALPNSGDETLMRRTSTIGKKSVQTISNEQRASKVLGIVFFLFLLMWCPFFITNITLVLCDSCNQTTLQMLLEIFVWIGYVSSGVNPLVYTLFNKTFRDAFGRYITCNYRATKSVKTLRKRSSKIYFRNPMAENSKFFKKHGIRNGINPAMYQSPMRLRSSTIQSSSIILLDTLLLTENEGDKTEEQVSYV", "assay": "Radioligand binding, agonist radioligand [125I](±)DOI"}, "[7]": {"biological_target": "T2, human 5-HT2A receptor (Homo sapiens, UniProt P28223)", "T2 construct": "expressed in transfected cells", "T2 sequence (P28223 whole entry)": "as the sequence (P28223 whole entry, added parts left off) above", "assay": "Gq-mediated calcium transients (calcium mobilization), Fluo-4, HEK cells", "assay_type": "cell-based"}, "[8]": {"details": "incubation 0 minutes, 1.0×10^−7 M"}, "[9]": {"details": "incubation 15 minutes, 1.0×10^−7 M"}, "[10]": {"details": "incubation 30 minutes, 1.0×10^−7 M"}, "[11]": {"details": "incubation 45 minutes, 1.0×10^−7 M"}, "[12]": {"details": "incubation 60 minutes, 1.0×10^−7 M"}},
  "note": "“And” between values parts separate entries of the source, which are not always exact repeats. Identical values can stand only once. Like-named read-outs stand apart in the source and are kept apart here. Marks after values point to notes of the source that are not given here.",
  "data": [
    {"smiles": "COc1cc(CC(C)C)c(OC)cc1CCN", "note": "[2C-iBu, 2,5-dimethoxy-4-isobutylphenethylamine]", "values": [
      {"measurement": "HTR counts, mean", "setting": "[1]; 0.3 mg/kg SC", "result": 30.8, "unit": "counts/30 min"},
      {"measurement": "HTR counts, mean", "setting": "[1]; 1 mg/kg SC", "result": "74.4 ** counts/30 min"},
      {"measurement": "HTR counts, mean", "setting": "[1]; 3 mg/kg SC", "result": "111.1±4.7 counts/30 min and 111.1 ** counts/30 min"},
      {"measurement": "HTR counts, mean", "setting": "[1]; 10 mg/kg SC", "result": "43.4* counts/30 min"},
      {"measurement": "Peak HTR counts", "setting": "[1]; Experiment 3, 3 mg/kg SC", "result": "20.1±3.5", "unit": "counts/5 min"},
      {"measurement": "ED50", "setting": "[1]; sc, read-out: ED50 for induction of HTR, based on molar mass", "result": 2.17, "unit": "µmol/kg"},
      {"measurement": "ED50", "setting": "[1]; SC, freebase weight, read-out: ED50 for induction of HTR", "result": 0.7, "unit": "mg/kg"},
      {"measurement": "fold lower behavioral potency than R-DOI", "setting": "[1]; ratio of HTR ED50 values (μmol/kg)", "result": "~3", "unit": "fold"},
      {"measurement": "EC50", "setting": "[2]", "result": 13.5, "unit": "nM"},
      {"measurement": "Emax", "setting": "[2]; Table 3, read-out: EMAX β-arrestin-2", "result": 77, "unit": "%"},
      {"measurement": "Emax", "setting": "[2]; read-out: EMAX (%) beta arrestin recruitment", "result": 57.4, "unit": "%"},
      {"measurement": "Clint", "setting": "[3]; human liver microsomes intrinsic clearance, 1.0×10^−7 M", "result": "<115.5"},
      {"measurement": "microsomal CLint", "setting": "[3]; human, human liver microsomes", "result": "< 116", "unit": "µL/min/mg"},
      {"measurement": "half-life", "setting": "[3]; human, human liver microsomes, 1.0×10^−7 M, read-out: Half-life (minutes), 1st", "result": "> 60", "unit": "min"},
      {"measurement": "half-life", "setting": "[3]; human, human liver microsomes, 1.0×10^−7 M, read-out: Half-life (minutes), 2nd", "result": 1020, "unit": "min"},
      {"measurement": "half-life", "setting": "[3]; human, human liver microsomes, 1.0×10^−7 M, read-out: Half-life (minutes), Mean", "result": "> 60", "unit": "min"},
      {"measurement": "% Compound Remaining, 1st", "setting": "[3]; [8]", "result": 100, "unit": "%"},
      {"measurement": "% Compound Remaining, 2nd", "setting": "[3]; [8]", "result": 100, "unit": "%"},
      {"measurement": "% Compound Remaining, Mean", "setting": "[3]; [8]", "result": 100, "unit": "%"},
      {"measurement": "% Compound Remaining, 1st", "setting": "[3]; [9]", "result": 91.0, "unit": "%"},
      {"measurement": "% Compound Remaining, 2nd", "setting": "[3]; [9]", "result": "{126.7} %"},
      {"measurement": "% Compound Remaining, Mean", "setting": "[3]; [9]", "result": 91, "unit": "%"},
      {"measurement": "% Compound Remaining, 1st", "setting": "[3]; [10]", "result": 113.6, "unit": "%"},
      {"measurement": "% Compound Remaining, 2nd", "setting": "[3]; [10]", "result": 114.2, "unit": "%"},
      {"measurement": "% Compound Remaining, Mean", "setting": "[3]; [10]", "result": 114, "unit": "%"},
      {"measurement": "% Compound Remaining, 1st", "setting": "[3]; [11]", "result": 105.3, "unit": "%"},
      {"measurement": "% Compound Remaining, 2nd", "setting": "[3]; [11]", "result": 106.5, "unit": "%"},
      {"measurement": "% Compound Remaining, Mean", "setting": "[3]; [11]", "result": 106, "unit": "%"},
      {"measurement": "% Compound Remaining, 1st", "setting": "[3]; [12]", "result": 94.1, "unit": "%"},
      {"measurement": "% Compound Remaining, 2nd", "setting": "[3]; [12]", "result": 94.2, "unit": "%"},
      {"measurement": "% Compound Remaining, Mean", "setting": "[3]; [12]", "result": 94, "unit": "%"},
      {"measurement": "% Protein bound, 1st", "setting": "[4]; human plasma", "result": 73.7, "unit": "%"},
      {"measurement": "% Protein bound, 2nd", "setting": "[4]; human plasma", "result": 74.5, "unit": "%"},
      {"measurement": "% Protein bound, Mean", "setting": "[4]; human plasma", "result": 74, "unit": "%"},
      {"measurement": "recovery", "setting": "[4]; read-out: % Recovery, 1st", "result": 107, "unit": "%"},
      {"measurement": "recovery", "setting": "[4]; read-out: % Recovery, 2nd", "result": 105, "unit": "%"},
      {"measurement": "recovery", "setting": "[4]; read-out: % Recovery, Mean", "result": 106, "unit": "%"},
      {"measurement": "recovery", "setting": "[5]; read-out: % Recovery A-B, 1st", "result": 45, "unit": "%"},
      {"measurement": "recovery", "setting": "[5]; read-out: % Recovery A-B, 2nd", "result": 48, "unit": "%"},
      {"measurement": "recovery", "setting": "[5]; read-out: % Recovery A-B, Mean", "result": 46, "unit": "%"},
      {"measurement": "recovery", "setting": "[5]; read-out: % Recovery B-A, 1st", "result": 70, "unit": "%"},
      {"measurement": "recovery", "setting": "[5]; read-out: % Recovery B-A, 2nd", "result": 72, "unit": "%"},
      {"measurement": "recovery", "setting": "[5]; read-out: % Recovery B-A, Mean", "result": 71, "unit": "%"},
      {"measurement": "Papp A→B", "setting": "[5]; read-out: A-B Permeability, 1st", "result": 10.9, "unit": "×10⁻⁶ cm/s"},
      {"measurement": "Papp A→B", "setting": "[5]; read-out: A-B Permeability, 2nd", "result": 10.6, "unit": "×10⁻⁶ cm/s"},
      {"measurement": "Papp A→B", "setting": "[5]; read-out: A-B Permeability, Mean", "result": 10.7, "unit": "×10⁻⁶ cm/s"},
      {"measurement": "Papp B→A", "setting": "[5]; read-out: B-A Permeability, 1st", "result": 7.87, "unit": "×10⁻⁶ cm/s"},
      {"measurement": "Papp B→A", "setting": "[5]; read-out: B-A Permeability, 2nd", "result": 7.92, "unit": "×10⁻⁶ cm/s"},
      {"measurement": "Papp B→A", "setting": "[5]; read-out: B-A Permeability, Mean", "result": 7.9, "unit": "×10⁻⁶ cm/s"},
      {"measurement": "Ki", "setting": "[6]", "result": 15.8, "unit": "nM"},
      {"measurement": "EC50", "setting": "[7]", "result": 2.19, "unit": "nM"},
      {"measurement": "Emax", "setting": "[7]; HEK293, read-out: EMAX (%) calcium mobilization", "result": 88, "unit": "%"},
      {"measurement": "Emax", "setting": "[7]; HEK293, read-out: EMAX Ca^2+", "result": 103, "unit": "%"}
    ]}
  ]
}
